One assay concerns the target T1, LPAR1 (Homo sapiens, UniProt Q92633).
T1 construct: host or cells: U2OS
Put plainly: LPAR1 FLIPR Assay. Type of assay: cell-based. To be noted: U2OS cells stably expressing LPAR1, LPA (EC80), Calcium 6 FLIPR dye; for Emax: read-out: Maximum Inhibition. In outline:
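U2OS cells stably expressing LPAR1 were loaded with Calcium 6 dye for 2 h at 37° C, preincubated 3 min with compound (11-point 3-fold series), then stimulated with LPA at EC80. Fluorescence at 515-575 nm was recorded by FLIPR; IC50 came from four-parameter logistic fits of ratio data.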

Assay [1] has as its system LPA-induced MCP-1 in NRK-49F cells. Put plainly: LPA-induced MCP-1 AlphaLISA assay. Type of assay: cell-based. To be noted: Rattus norvegicus, final LPA 10 μM, 7 hours; for Emax: read-out: Maximum Inhibition. The procedure:
Two days prior to the experiment, NRK-49F cells were plated at 8,000 cells/well in 100 μL of growth medium [DMEM (Life Technologies #11995) with 5% dFBS (Life Technologies #30067-334), 100 units/mL penicillin/streptomycin (Life Technologies #15140122)] in 96-well clear flat bottom polystyrene TC-treated microplate (Corning® #3599) and incubated in humidified 10% CO2 at 37° C. One day prior to the experiment, the cell medium was removed and serum free medium [100 μL/well, DMEM (Life Technologies #11995) with 0.1% fatty acid free BSA (Sigma #A6003)] was added with continued incubation in humidified 10% CO2 at 37° C. overnight. On the day of the assay, test compounds were 1:3 serially diluted in 100% DMSO using a BioTek Precision™ system and then transferred (equivalent volume of DMSO as controls) to a plate in serum free medium [DMEM with 0.1% fatty acid free BSA] using a Biomek® NX workstation to give a 2× compound solution. The cell culture medium was removed, and cells were pre-treated with 50 μL/well of 2× compound in serum free medium [DMEM with 0.1% fatty acid free BSA] at 37° C. for 30 minutes. Following the incubation, 50 μL/well of 20 μM LPA diluted in serum free medium [DMEM with 0.1% fatty acid free BSA] was added to the cells. Serum free medium [DMEM with 0.1% fatty acid free BSA] was used as substitution for low control wells while 20 µM LPA was added to high control wells and test compound wells. 200 µM LPA was added to EC100 wells. Final DMSO concentration was 1% in every well. Final LPA concentration in test compound wells and high control wells was 10 μM. […] After the incubation, cell supernatant was transferred to a new 96 well polypropylene plate (Greiner #651201) where it was sealed and stored at −80° C. On the detection day, 5 μL of thawed cell supernatant was transferred to a new white opaque 384-well microplate (Perkin Elmer #6007299). An AlphaLISA® mouse/rat CCL2/MCP1, Immunoassay Research kit (PerkinElmer #AL509F) was used. A mixture (20 μL/well) of AlphaLISA® Anti-Analyte Accept beads (10 μg/mL final) and Biotinylated Antibody Anti-Analyte (freshly prepared, 1 nM final) was added. The mixture in the wells was mixed and then incubated at room temperature for 1 hour. Then SA-Donor beads (25 μL/well, 40 μg/mL final) were added giving a final volume of 50 μL/well. The contents of the wells were mixed and then incubated at room temperature for 0.5 hour (protect from light). The plate was read using the default Envision™ Alpha protocol (PerkinElmer). IC50 values were calculated from curve fits of the ratio data using a four-parameter logistic Hill equation (Assay Explorer 3.3 Client).

T1 sequence (Q92633 whole entry): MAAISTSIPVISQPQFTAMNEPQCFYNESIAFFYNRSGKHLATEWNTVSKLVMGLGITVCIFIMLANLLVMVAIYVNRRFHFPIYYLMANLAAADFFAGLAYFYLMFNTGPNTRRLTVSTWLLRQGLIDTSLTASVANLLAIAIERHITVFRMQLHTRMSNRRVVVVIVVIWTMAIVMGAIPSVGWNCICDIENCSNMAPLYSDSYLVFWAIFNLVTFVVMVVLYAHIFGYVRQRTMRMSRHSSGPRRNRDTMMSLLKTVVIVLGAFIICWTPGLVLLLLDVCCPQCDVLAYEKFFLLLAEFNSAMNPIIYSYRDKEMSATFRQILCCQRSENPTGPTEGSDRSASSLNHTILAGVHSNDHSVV

In the case of `CNS(=O)(=O)NC(=O)CCCCN(CCCc1ccccc1)C(=O)c1cc(OC)c(C)c(OC)c1` [Example 70, 3,5-dimethoxy-4-methyl-N-{5-[(methylsulfamoyl)amino]-5-oxopentyl}-N-(3-phenylpropyl)benzamide], the IC50 at LPAR1 turned out to be 56 nM; in assay [1], 637 nM. For the same compound, the Emax at LPAR1 was found to be 98%; in assay [1], 90%.
In the same order, the values of `COc1cc(OC)cc(C(=O)N(CCCCC(=O)O)CCCc2c(F)cccc2F)c1` [Example 137, 5-{[3-(2,6-difluorophenyl)propyl](3,5-dimethoxybenzoyl)amino}pentanoic Acid] are 92 nM, greater than 10000 nM, 64% and 28%.
For `COc1cc(C(=O)N(CCCCC(=O)O)Cc2ccccc2)cc(OC)c1C` [Example 94, 5-[benzyl(3,5-dimethoxy-4-methylbenzoyl)amino]pentanoic Acid], in that order: greater than 30000 nM, greater than 10000 nM, 2% and 13%.
Consider `COc1ccc(C(=O)N(CCCCC(=O)O)CCCc2ccccc2)cc1F` [Example 79, 5-[(3-fluoro-4-methoxybenzoyl)(3-phenylpropyl)amino]pentanoic Acid], for which the IC50 at LPAR1 is greater than 30000 nM; in assay [1], greater than 10000 nM. In addition, the values for the Emax (on LPAR1; in assay [1]) were 13% and 36%, respectively.
In the same order, the values of `COc1cc(C(=O)N(CCCc2ccccc2)CCC(=O)O)cc(OC)c1C` [Example 67, N-(3,5-dimethoxy-4-methylbenzoyl)-N-(3-phenylpropyl)-beta-alanine] are greater than 30000 nM, 3720 nM, 46% and 57%.
In the same order, the values of `COc1cccc(C2(C(=O)N(CCCCC(=O)O)CCCc3ccccc3)CC2)c1` [Example 82, 5-{[1-(3-methoxyphenyl)cyclopropane-1-carbonyl](3-phenylpropyl)amino}pentanoic Acid] are greater than 30000 nM, greater than 10000 nM, 39% and 2%.
In the same order, the values of `COc1ccc(C2(C(=O)N(CCCCC(=O)O)CCCc3ccccc3)CC(=O)C2)cc1` [Example 152, 5-{[1-(4-methoxyphenyl)-3-oxocyclobutane-1-carbonyl](3-phenylpropyl)amino}pentanoic Acid] are 85 nM, 6170 nM, 88% and 64%.
On to `COc1ccc(C(=O)N(CCCCC(=O)O)CCCc2ccccc2)cc1` [Example 84, 5-[(4-methoxybenzoyl)(3-phenylpropyl)amino]pentanoic Acid], for which, on LPAR1, the IC50 is greater than 30000 nM and the Emax was 7%. For the same compound, in assay [1], the IC50 is greater than 10000 nM and the Emax was found to be 31%.
For `COc1ccc(C2(C(=O)N(CCCCC(=O)O)CCCc3cccc(Cl)c3)CC2)cc1` [Example 102, 5-{[3-(3-chlorophenyl)propyl][1-(4-methoxyphenyl)cyclopropane-1-carbonyl]amino}pentanoic Acid], in that order: 47 nM, 85%, 1550 nM and 80%.
For `COc1cc(OC)cc(C(=O)N(CCCCC(=O)O)CCCc2cc(F)cc(F)c2)c1` [Example 136, 5-{[3-(3,5-difluorophenyl)propyl](3,5-dimethoxybenzoyl)amino}pentanoic Acid], in that order: greater than 10000 nM, 15%, greater than 10000 nM and 47%.
For `COc1cc(C(=O)N(CCCc2ccc(C)o2)CCCC(C)C(=O)O)cc(OC)c1C` (stereo not drawn) [Example 179, 5-{(3,5-dimethoxy-4-methylbenzoyl)[3-(5-methylfuran-2-yl)propyl]amino}-2-methylpentanoic Acid], in that order: 46 nM, 97%, 1980 nM and 74%.
`COc1cc(C(=O)N(CCCc2ccccc2)CCCC(C)(C)C(=O)NS(C)(=O)=O)cc(OC)c1C` [Example 162, N-{5-[(methanesulfonyl)amino]-4,4-dimethyl-5-oxopentyl}-3,5-dimethoxy-4-methyl-N-(3-phenylpropyl)benzamide]: at LPAR1, the IC50 turned out to be 76 nM and the Emax came to 100%. In assay [1], 7 nM corresponded to half-maximal inhibition (IC50) and the Emax worked out at 94%.
In the same order, the values of `COc1cc(C(=O)N(CCCc2ccccc2)C[C@H](O)CCC(=O)O)cc(OC)c1C` [Example 120, (4R)-5-[(3,5-dimethoxy-4-methylbenzoyl)(3-phenylpropyl)amino]-4-hydroxypentanoic Acid] are 39 nM, 81%, 5240 nM and 65%.
For `COc1cc(C(=O)N(CCCc2ccc(C)o2)CCCC(C)(C)C(=O)O)cc(OC)c1C` [Example 180, 5-{(3,5-dimethoxy-4-methylbenzoyl)[3-(5-methylfuran-2-yl)propyl]amino}-2,2-dimethylpentanoic Acid], in that order: 48 nM, 100%, 105 nM and 93%.
For `COc1cc(C(=O)N(CCCc2ccccc2)CC(=O)N[C@@H](Cc2cccs2)C(=O)O)cc(OC)c1C` [Example 47, N-(3,5-dimethoxy-4-methylbenzoyl)-N-(3-phenylpropyl)glycyl-3-thiophen-2-ylalanine], in that order: 79 nM, 88%, 4700 nM and 58%.
Consider `COc1cc(C(=O)N(CCCc2ccccc2)CCCC(C)C(=O)NS(C)(=O)=O)cc(OC)c1C` (stereo not drawn) [Example 161, N-{5-[(methanesulfonyl)amino]-4-methyl-5-oxopentyl}-3,5-dimethoxy-4-methyl-N-(3-phenylpropyl)benzamide], for which, on LPAR1, the IC50 stood at 99 nM and the Emax worked out at 99%. In assay [1], 79 nM corresponded to half-maximal inhibition (IC50) and the Emax was found to be 88%.
In the same order, the values of `COc1cc(C(=O)N(CCCCC(=O)NS(=O)(=O)c2ccccc2)CCCc2ccccc2)cc(OC)c1C` [Example 144, N-{5-[(benzenesulfonyl)amino]-5-oxopentyl}-3,5-dimethoxy-4-methyl-N-(3-phenylpropyl)benzamide] are 99 nM, 92%, 1090 nM and 96%.
For `CC(=O)Nc1cc(C(=O)N(CCCCC(=O)O)CCCc2ccccc2)ccn1` [Example 171, 5-[(2-acetamidopyridine-4-carbonyl)(3-phenylpropyl)amino]pentanoic Acid], in that order: 933 nM, 70%, greater than 2180 nM and 30%.
As to `COc1cc(C(=O)N(CCCCC(=O)O)CCCCc2ccccc2)cc(OC)c1C` [Example 96, 5-[(3,5-dimethoxy-4-methylbenzoyl)(4-phenylbutyl)amino]pentanoic Acid], on LPAR1, the IC50 was 19900 nM and the Emax turned out to be 62%. Besides, in assay [1], the IC50 is greater than 10000 nM and the Emax is 52%.
In the same order, the values of `CCOc1cc(OCC)cc(C(=O)N(CCCCC(=O)O)CCCc2ccc(C)o2)c1` [Example 176, 5-{(3,5-diethoxybenzoyl)[3-(5-methylfuran-2-yl)propyl]amino}pentanoic Acid] are 84 nM, 64%, greater than 8190 nM and 53%.
In the same order, the values of `COc1cc(OC)cc(C(=O)N(CCCCC(=O)O)CCCc2ccccc2Cl)c1` [Example 135, 5-{[3-(2-chlorophenyl)propyl](3,5-dimethoxybenzoyl)amino}pentanoic Acid] are greater than 10000 nM, 32%, greater than 10000 nM and 25%.

For the origin of these results see patent US20190119200A1, “TERTIARY AMIDES AND METHOD OF USE” (AbbVie Inc., priority 2016, published 2019).
